Experiments:
[1] = osmotic coefficient (dimensionless); mn = molality of the nth substance listed, in mol/kg; conditions: 298.15 K, Liquid, isopiestic method
[2] = mean ionic activity coefficient (dimensionless); mn = molality of the nth substance listed, in mol/kg; conditions: 298.15 K, Liquid, Isopiestic method

CCC(C)[N+](CC)(CC)CC.[I-] (stereo unspecified) [N,N,N-triethyl-2-butanaminium iodide] + O
Conditions | mean ionic activity coefficient, [2] | osmotic coefficient, [1]
m1 = 0.0355 | 0.7342 | 0.868
m1 = 0.0419 | 0.7111 | 0.857
m1 = 0.0466 | 0.6955 | 0.849
m1 = 0.0596 | 0.6571 | 0.833
m1 = 0.0659 | 0.6405 | 0.827
m1 = 0.0701 | 0.6301 | 0.82
m1 = 0.078 | 0.6116 | 0.814
m1 = 0.0914 | 0.5833 | 0.801
m1 = 0.0985 | 0.5696 | 0.794
m1 = 0.1038 | 0.5599 | 0.79
m1 = 0.1115 | 0.5465 | 0.784
m1 = 0.1743 | 0.4605 | 0.728
m1 = 0.1756 | 0.459 | 0.728
m1 = 0.2078 | 0.4262 | 0.704
m1 = 0.2438 | 0.3955 | 0.676
m1 = 0.248 | 0.3922 | 0.673
m1 = 0.2939 | 0.3602 | 0.651
m1 = 0.338 | 0.3347 | 0.621
m1 = 0.3717 | 0.3178 | 0.616
m1 = 0.3901 | 0.3094 | 0.602
m1 = 0.431 | 0.2924 | 0.578
m1 = 0.4744 | 0.2766 | 0.57
m1 = 0.5204 | 0.2619 | 0.554
m1 = 0.5785 | 0.2458 | 0.538
m1 = 0.624 | 0.2347 | 0.525
m1 = 0.665 | 0.2257 | 0.52
m1 = 0.6928 | 0.22 | 0.508
m1 = 0.8 | 0.2011 | 0.49
m1 = 0.847 | 0.194 | 0.486
m1 = 0.9185 | 0.1842 | 0.48
m1 = 0.978 | 0.177 | 0.468
m1 = 1.091 | 0.1651 | 0.456
m1 = 1.19 | 0.1562 | 0.445
m1 = 1.306 | 0.1471 | 0.433
m1 = 1.407 | 0.1402 | 0.427
m1 = 1.545 | 0.132 | 0.413
m1 = 1.715 | 0.1234 | 0.411
m1 = 1.891 | 0.1159 | 0.407
m1 = 1.928 | 0.1144 | 0.412
m1 = 1.988 | 0.1122 | 0.407
m1 = 2.019 | 0.111 | 0.408
m1 = 2.09 | 0.1086 | 0.417
m1 = 2.172 | 0.1059 | 0.413
m1 = 2.413 | 0.0987 | 0.43

CC[N+](CC)(CC)CC(C)C.[I-] [N,N,N-triethyl-2-methyl-1-propanaminium iodide] + O
Conditions | mean ionic activity coefficient, [2] | osmotic coefficient, [1]
m1 = 0.0366 | 0.7118 | 0.841
m1 = 0.0433 | 0.6866 | 0.828
m1 = 0.0483 | 0.6687 | 0.819
m1 = 0.0624 | 0.6257 | 0.795
m1 = 0.0695 | 0.6067 | 0.784
m1 = 0.0739 | 0.5963 | 0.778
m1 = 0.0824 | 0.5764 | 0.769
m1 = 0.0975 | 0.5439 | 0.751
m1 = 0.1055 | 0.5296 | 0.741
m1 = 0.1113 | 0.5191 | 0.736
m1 = 0.12 | 0.5042 | 0.729
m1 = 0.1872 | 0.4149 | 0.678
m1 = 0.1889 | 0.4131 | 0.677
m1 = 0.2234 | 0.3799 | 0.655
m1 = 0.2618 | 0.3493 | 0.63
m1 = 0.265 | 0.347 | 0.63
m1 = 0.3183 | 0.3131 | 0.601
m1 = 0.3626 | 0.2901 | 0.579
m1 = 0.4063 | 0.2708 | 0.563
m1 = 0.4229 | 0.2643 | 0.555
m1 = 0.4602 | 0.2508 | 0.541
m1 = 0.5128 | 0.2343 | 0.527
m1 = 0.5607 | 0.2214 | 0.514
m1 = 0.6289 | 0.2056 | 0.495
m1 = 0.6797 | 0.1956 | 0.482
m1 = 0.737 | 0.1857 | 0.469
m1 = 0.749 | 0.1837 | 0.47
m1 = 0.8695 | 0.1669 | 0.451
m1 = 0.9418 | 0.1587 | 0.437
m1 = 1.034 | 0.1496 | 0.426
m1 = 1.1 | 0.144 | 0.416
m1 = 1.232 | 0.1343 | 0.404
m1 = 1.352 | 0.1271 | 0.392
m1 = 1.465 | 0.1213 | 0.386
m1 = 1.595 | 0.1156 | 0.377
m1 = 1.703 | 0.1115 | 0.375
m1 = 1.891 | 0.1055 | 0.373
m1 = 2.044 | 0.1013 | 0.377
m1 = 2.096 | 0.0994 | 0.379
m1 = 2.142 | 0.0984 | 0.378
m1 = 2.163 | 0.0981 | 0.381
m1 = 2.254 | 0.0955 | 0.387
m1 = 2.308 | 0.0941 | 0.389
m1 = 2.528 | 0.0917 | 0.41

Source: the NIST ThermoML archive (doi:10.1021/je2009413)
